Here are results for 25 compounds from patent US8729082B2, “Substituted imidazoquinoxalines” (Bayer Intellectual Property GmbH, priority 2009, dated 2014).

This assay deals with T1, human kinase Mps-1 (Homo sapiens, UniProt P33981).
T1 construct: N-terminally GST-tagged human full length recombinant Mps-1 kinase; purchased Invitrogen, Karslruhe, Germany PV4071
T1 sequence (P33981 1-857): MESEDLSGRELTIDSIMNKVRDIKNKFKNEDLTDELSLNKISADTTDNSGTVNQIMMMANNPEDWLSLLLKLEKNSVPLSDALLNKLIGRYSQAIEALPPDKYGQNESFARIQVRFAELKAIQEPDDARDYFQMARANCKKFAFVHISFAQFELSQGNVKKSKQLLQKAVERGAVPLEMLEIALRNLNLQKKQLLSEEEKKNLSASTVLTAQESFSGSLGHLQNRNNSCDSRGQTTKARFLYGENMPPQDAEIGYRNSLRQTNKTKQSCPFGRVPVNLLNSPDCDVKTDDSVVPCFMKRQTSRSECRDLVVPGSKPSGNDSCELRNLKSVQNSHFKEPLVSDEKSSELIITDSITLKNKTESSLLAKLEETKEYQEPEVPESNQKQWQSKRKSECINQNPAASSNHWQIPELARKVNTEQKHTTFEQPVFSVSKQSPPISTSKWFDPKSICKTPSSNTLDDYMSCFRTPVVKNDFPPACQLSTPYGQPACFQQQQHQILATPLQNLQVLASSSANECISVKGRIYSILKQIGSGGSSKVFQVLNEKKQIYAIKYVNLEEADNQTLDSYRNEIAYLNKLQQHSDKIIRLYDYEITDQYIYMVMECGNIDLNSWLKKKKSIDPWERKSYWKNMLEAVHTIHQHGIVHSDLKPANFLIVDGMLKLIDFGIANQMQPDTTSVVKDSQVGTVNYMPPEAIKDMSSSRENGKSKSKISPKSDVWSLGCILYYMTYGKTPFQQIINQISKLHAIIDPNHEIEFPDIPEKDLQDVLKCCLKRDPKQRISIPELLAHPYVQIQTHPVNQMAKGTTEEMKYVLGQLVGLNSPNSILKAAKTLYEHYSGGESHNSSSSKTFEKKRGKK
Briefly: Mps-1 kinase assay (HTRF). It counts as biochemical. The conditions noted are these: lowATP; mean; read-out: Mps1 lowATP mean IC50. Put shortly: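 HTRF readout: EDTA-stopped reactions incubated 1 h with europium anti-phospho(Ser/Thr) antibody and streptavidin-XLent, emission ratio 665/620 nm after 350 nm excitation. Kinase step: compound pre-bound 15 min to ~1 nM GST-Mps-1, then 60 min at 22 °C with ATP and biotin-peptide substrate; inhibition scaled between no-inhibitor (0%) and no-enzyme (100%) controls.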
What is called IC50 is the concentration that gives 50% inhibition. Regarding `CNC(=O)Nc1ccc(-c2cnc3c(NCc4ccccc4F)nc4ccc(F)cc4n23)cc1` [Example 2-62, 1-(4-{8-fluoro-4-[(2-fluorobenzyl)amino]imidazo[1,2-a]quinoxalin-1-yl}phenyl)-3-methylurea], the half-inhibitory concentration (IC50) came to 17600 nM.
With `CC(C)CNc1nc2cc(F)c(F)cc2n2c(-c3ccc(C(=O)NC4CC4)c(Cl)c3)cnc12` [Example 2-137, 2-chloro-N-cyclopropyl-4-{7,8-difluoro-4-[(2-methylpropyl)amino]imidazo[1,2-a]quinoxalin-1-yl}benzamide], the IC50 was 391 nM.
Next, `Cn1nccc1CNc1nc2cc(C#N)ccc2n2c(-c3ccc(C(=O)NC4CC4)cc3)cnc12` [Example 2-220, 4-(7-cyano-4-{[(1-methyl-1H-pyrazol-5-yl)methyl]amino}imidazo[1,2-a]quinoxalin-1-yl)-N-cyclopropylbenzamide]: 15.6 nM.
The figure for `CC(C)(C)OC(=O)NCCCNc1nc2ccc(F)cc2n2c(-c3ccc(C(=O)NC4CC4)c(Cl)c3)cnc12` [Example 2-84, tert-butyl [3-({1-[3-chloro-4-(cyclopropylcarbamoyl)phenyl]-8-fluoroimidazo[1,2-a]quinoxalin-4-yl}amino)propyl]carbamate] is 2880 nM.
The figure for `O=C(NC1CC1)c1ccc(-c2cnc3c(NCCN4CCNC4=O)nc4ccccc4n23)cc1` [Example 2-33, N-cyclopropyl-4-(4-{[2-(2-oxoimidazolidin-1-yl)ethyl]amino}imidazo[1,2-a]quinoxalin-1-yl)benzamide] is 1150 nM.
On to `CC(C)CNc1nc2cc(C#N)ccc2n2c(-c3ccc(C(=O)NC4CC4)cc3)cnc12` [Example 2-216, 4-{7-cyano-4-[(2-methylpropyl)amino]imidazo[1,2-a]quinoxalin-1-yl}-N-cyclopropylbenzamide], for which the IC50 was 9.56 nM.
As for `Cc1ccccc1-c1cnc2c(NCC(C)C)nc3ccccc3n12` [Example 1-11, 1-(2-methylphenyl)-N-(2-methylpropyl)imidazo[1,2-a]quinoxalin-4-amine], the concentration for half-maximal inhibition (IC50) was found to be 13900 nM.
In the case of `N#Cc1ccc2c(c1)nc(NCCC(N)=O)c1ncc(-c3ccc(C(=O)NC4CC4)c(Cl)c3)n12` [Example 2-248, 4-{4-[(3-amino-3-oxopropyl)amino]-7-cyanoimidazo[1,2-a]quinoxalin-1-yl}-2-chloro-N-cyclopropylbenzamide], the half-maximal inhibitory concentration (IC50) amounted to 5830 nM.
The figure for `CNC(=O)Nc1ccc(-c2cnc3c(NCc4ccncc4)nc4cc(C)c(C)cc4n23)cc1` [Example 2-172, 1-(4-{7,8-dimethyl-4-[(pyridin-4-ylmethyl)amino]imidazo[1,2-a]quinoxalin-1-yl}phenyl)-3-methylurea] is 260 nM; for `Cn1nccc1CNc1nc2ccc(F)cc2n2c(-c3ccc(C(=O)NC4CC4)c(Cl)c3)cnc12` [Example 2-85, 2-chloro-N-cyclopropyl-4-(8-fluoro-4-{[(1-methyl-1H-pyrazol-5-yl)methyl]amino}imidazo[1,2-a]quinoxalin-1-yl)benzamide] it is 761 nM.
Next, `CC(C)CNc1nc2ccccc2n2c(-c3ccc4cc[nH]c4c3)cnc12` [Example 1-13, 1-(1H-indol-6-yl)-N-(2-methylpropyl)imidazo[1,2-a]quinoxalin-4-amine]: 2010 nM; `O=C(NC1CC1)c1ccc(-c2cnc3c(NCc4cccs4)nc4cc(F)c(F)cc4n23)cc1` [Example 2-98, N-cyclopropyl-4-{7,8-difluoro-4-[(thiophen-2-ylmethyl)amino]imidazo[1,2-a]quinoxalin-1-yl}benzamide]: 62.2 nM.
Take `COCCNc1nc2cc(C)c(C)cc2n2c(-c3ccc(C(=O)NC4CC4)c(Cl)c3)cnc12` [Example 2-183, 2-chloro-N-cyclopropyl-4-{4-[(2-methoxyethyl)amino]-7,8-dimethylimidazo[1,2-a]quinoxalin-1-yl}benzamide]: the IC50 was 113 nM.
In the case of `CNC(=O)Nc1ccc(-c2cnc3c(NCc4cccnc4)nc4cc(F)c(F)cc4n23)cc1` [Example 2-122, 1-(4-{7,8-difluoro-4-[(pyridin-3-ylmethyl)amino]imidazo[1,2-a]quinoxalin-1-yl}phenyl)-3-methylurea], the IC50 stood at 4080 nM.
For `O=C(NC1CC1)c1ccc(-c2cnc3c(NCc4cccc(Cl)c4)nc4ccccc4n23)cc1` [Example 2-7, 4-{4-[(3-chlorobenzyl)amino]imidazo[1,2-a]quinoxalin-1-yl}-N-cyclopropylbenzamide], the IC50 was determined as 222 nM.
The figure for `Cc1cc2nc(NCc3ccccn3)c3ncc(-c4ccc(C(=O)NC5CC5)cc4)n3c2cc1C` [Example 2-151, N-cyclopropyl-4-{7,8-dimethyl-4-[(pyridin-2-ylmethyl)amino]imidazo[1,2-a]quinoxalin-1-yl}benzamide] is 19.5 nM; for `CCCNc1nc2cc(F)c(F)cc2n2c(-c3ccc(C(=O)NC4CC4)c(Cl)c3)cnc12` [Example 2-124, 2-chloro-N-cyclopropyl-4-[7,8-difluoro-4-(propylamino)imidazo[1,2-a]quinoxalin-1-yl]benzamide] it is 319 nM.
Turning to `O=C(NC1CC1)c1ccc(-c2cnc3c(NCc4cccnc4)nc4ccccc4n23)cc1` [Example 2-26, N-cyclopropyl-4-{4-[(pyridin-3-ylmethyl)amino]imidazo[1,2-a]quinoxalin-1-yl}benzamide], the IC50 was 99.6 nM.
On to `CC(C)(C)OC(=O)NCCCNc1nc2cc(C#N)ccc2n2c(-c3ccc(C(=O)NC4CC4)c(Cl)c3)cnc12` [Example 2-250, tert-butyl [3-({1-[3-chloro-4-(cyclopropylcarbamoyl)phenyl]-7-cyanoimidazo[1,2-a]quinoxalin-4-yl}amino)propyl]carbamate], for which the IC50 stood at 1460 nM.
In the case of `O=C(NC1CC1)c1ccc(-c2cnc3c(NCCCN4CCCC4=O)nc4cc(F)c(F)cc4n23)cc1Cl` [Example 2-125, 2-chloro-N-cyclopropyl-4-(7,8-difluoro-4-{[3-(2-oxopyrrolidin-1-yl)propyl]amino}imidazo[1,2-a]quinoxalin-1-yl)benzamide], the IC50 amounted to 9640 nM.
Consider `CC(C)CNc1nc2ccccc2n2c(-c3ccncc3)cnc12` [Example 1-34, N-(2-methylpropyl)-1-(pyridin-4-yl)imidazo[1,2-a]quinoxalin-4-amine], for which the IC50 stood at 11900 nM.
Next, `CNC(=O)Nc1ccc(-c2cnc3c(NCCNC(C)=O)nc4cc(F)c(F)cc4n23)cc1` [Example 2-118, N-{2-[(7,8-difluoro-1-{4-[(methylcarbamoyl)amino]phenyl}imidazo[1,2-a]quinoxalin-4-yl)amino]ethyl}acetamide]: 12700 nM; `COCCNc1nc2ccc(F)cc2n2c(-c3ccc(C(=O)NC4CC4)c(Cl)c3)cnc12` [Example 2-78, 2-chloro-N-cyclopropyl-4-{8-fluoro-4-[(2-methoxyethyl)amino]imidazo[1,2-a]quinoxalin-1-yl}benzamide]: 6700 nM.
Consider `CCCNc1nc2ccc(F)cc2n2c(-c3ccc(C(=O)NC4CC4)c(Cl)c3)cnc12` [Example 2-75, 2-chloro-N-cyclopropyl-4-[8-fluoro-4-(propylamino)imidazo[1,2-a]quinoxalin-1-yl]benzamide], for which the half-maximal inhibitory concentration (IC50) was determined as 1080 nM.
For `Cc1cc2nc(NCc3ccccn3)c3ncc(-c4ccc(C(=O)NC5CC5)c(Cl)c4)n3c2cc1C` [Example 2-191, 2-chloro-N-cyclopropyl-4-{7,8-dimethyl-4-[(pyridin-2-ylmethyl)amino]imidazo[1,2-a]quinoxalin-1-yl}benzamide], the IC50 came out at 251 nM.
